According to patent US8349827B2, “Substituted dipyrido-pyrimido-diazepine and benzo-pyrido-pyrimido compounds” (ArQule, Inc., priority 2009, dated 2013):

Experiments:
DLD-1 = test: MTS assay, DLD-1 cells; assay type: cell-based; settings: Homo sapiens, 72 hours
Protocol: (§1) Cells were maintained at 37° C., 5% CO2 in DMEM media supplemented with 1% fetal bovine serum, penicillin/streptomycin and fungizone (Invitrogen). Cells were seeded into 96-well tissue culture plates at 3000 per well and cultured at 37° C. for 18 hours. Test compounds were dissolved and diluted to 300× in DMSO then diluted 1:40 in DMEM. Cells were incubated with test compounds for 72 hours followed by incubation with tetrazolium compound (3-(4,5-dimethylthiazol-2-yl)-5-(3-carboxymethoxyphenyl)-2-(4-sulfophenyl)-2H-tetrazolium, inner salt; MTS) and the electron coupling reagent, phenazine methosulfate (PMS) for 4 hours. […] The ability of compounds to inhibit cell growth in this assay is correlated with the reduction of dehydrogenase enzyme activity found in metabolically active cells. The measurement of the absorbance of the formazan was assessed using an ENVISION™ (Perkin Elmer) microplate reader at 492 nm. The calculated IC50 value is the concentration of the test compound that causes a 50% decrease in the absorbance.

KATO III = test: MTS assay, KATO III cells; assay type: cell-based; settings: Homo sapiens, 72 hours
Protocol: as §1

MDA-MB-231 = test: MTS assay, MDA-MB-231 cells; assay type: cell-based; settings: Homo sapiens, 72 hours
Protocol: as §1

NCI-H1299 = test: MTS assay, NCI-H1299 cells; assay type: cell-based; settings: Homo sapiens, 72 hours
Protocol: as §1

PACA-2 = test: MTS assay, PACA-2 cells; assay type: cell-based; settings: 72 hours
Protocol: as §1

PC-3 = test: MTS assay, PC-3 cells; assay type: cell-based; settings: Homo sapiens, 72 hours
Protocol: as §1

ABL T315I = ABL T315I (Homo sapiens, UniProt P00519, T315I); test: ABL Kinase Activity Assay (Elisa), ABL T315I; assay type: biochemical; settings: ATP 100 μM, read-out: Abl(T315I) Enzymetic assay (Elisa) % inhibition
Protocol: (§2) ABL Kinase Activity Assay
(§3) The disclosed compounds were assayed for their ability to inhibit the activity of ABL kinase. Nunc Maxisorb plates were coated with streptavidin by overnight incubation with 100 μL per well of 1 μg/ml streptavidin in DPBS. Prior to the experiment, the plates were washed with TBST (3×200 μL) and blocked for at least 3 hours by adding 150 μL of 5% BSA/TBST. The plates were washed with TBST (3×200 μL/well) and left dry immediately before the capture step.
(§4) The disclosed test compounds and controls (Gleevec) were prepared using the following assay buffer@10× desired final concentration (50 mM Tris pH 7.0, 0.02 mg/ml BSA, 10 mM MgCl2, 0.1 mM Na3VO4, 1 mM EGTA, 0.01% NP-40, 1 mM DTT in 10% glycerol/water). In a reaction plate, 5 μl test article (or control) and 30 μl ABL or ABL T315I (0.089 nM final concentration, in the above buffer) were added rapidly. The plate was incubated for 20 minutes. To the reaction plate was added ATP (100 μM final concentration) and AblTide (128 nM final concentration) in a volume of 15 μl. The plate was incubated at room temperature for one hour.
(§5) From the reaction plate, 40 μl was transferred to the streptavidin coated plate. The capture plate was incubated at room temperature for 30 minutes, then washed 3× with TBST. To the capture plate was added 100 μL/well of cell signaling anti-phospho tyrosine at a dilution of 1:3000 in 2% BSA/TBST. The plate was incubated for two hours at room temperature then washed 3× with TBST. To the capture plate was added 100 μL/well of alkaline phosphatase tagged goat anti mouse antibody at a dilution of 1:4000 in 2% BSA/TBST. The plate was incubated for one hour at room temperature then washed 3× with TBST.
(§6) The fluorescent readout was initiated by the addition of 100 μl/well of Attophos reagent (6 mg/10 mL). The reading was done on the Perkin Elmer Envision system.

ABL = ABL (Homo sapiens, UniProt P00519); test: ABL Kinase Activity Assay (Elisa), ABL; assay type: biochemical; settings: ATP 100 μM, read-out: Abl Enzymetic assay (Elisa) % inhibition
Protocol: as §2, §3, §4, §5, §6

SMILES	inhibition at 10 µM (DLD-1) [%]	inhibition at 10 µM (KATO III) [%]	inhibition at 10 µM (MDA-MB-231) [%]	inhibition at 10 µM (NCI-H1299) [%]	inhibition at 10 µM (PACA-2) [%]	inhibition at 10 µM (PC-3) [%]	inhibition at 10 µM (ABL T315I) [%]	inhibition at 10 µM (ABL) [%]
c1ccc(CNc2ncc3c(n2)-c2cccnc2Nc2cnccc2-3)nc1 [Example 49, N-(pyridin-2-ylmethyl)-9H-dipyrido[2,3-b:4′,3′-f]pyrimido[4,5-d]azepin-2-amine]	80 to 100	80 to 100	80 to 100	80 to 100	80 to 100	80 to 100	–	–
CN(C)CCCNc1ncc2c(n1)-c1cccnc1Nc1cnccc1-2 [Example 50, N′-9H-dipyrido[2,3-b:4′,3′-f]pyrimido[4,5-d]azepin-2-yl-N,N-dimethylpropane-1,3-diamine]	–	< 50	–	–	< 50	< 50	< 50	50 to 79
CC(=O)N1CCN(c2ncc3c(n2)-c2cccnc2Nc2cnccc2-3)CC1 [Example 57, 2-(4-acetylpiperazin-1-yl)-9H-dipyrido[2,3-b:4′,3′-f]pyrimido[4,5-d]azepine]	80 to 100	80 to 100	80 to 100	80 to 100	80 to 100	80 to 100	–	–
CC(C)(C)C(=O)N1CCN(c2ncc3c(n2)-c2cccnc2Nc2cnccc2-3)CC1 [Example 58, 2-[4-(2,2-dimethylpropanoyl)piperazin-1-yl]-9H-dipyrido[2,3-b:4′,3′-f]pyrimido[4,5-d]azepine]	80 to 100	50 to 79	< 50	–	80 to 100	50 to 79	–	–
c1cnc2c(c1)-c1nc(NC3CCNCC3)ncc1-c1ccncc1N2 [Example 59, N-piperidin-4-yl-9H-dipyrido[2,3-b:4′,3′-f]pyrimido[4,5-d]azepin-2-amine]	–	80 to 100	80 to 100	–	–	80 to 100	80 to 100	80 to 100
Nc1ncc2c(n1)-c1cccnc1Nc1ccccc1-2 [Example 62, 9H-pyrido[2,3-b]pyrimido[4,5-d][1]benzazepin-2-amine]	–	< 50	< 50	–	< 50	< 50	50 to 79	50 to 79
Fc1ccc(CNc2ncc3c(n2)-c2cccnc2Nc2ccccc2-3)c(F)c1 [Example 64, N-(2,4-difluorobenzyl)-9H-pyrido[2,3-b]pyrimido[4,5-d][1]benzazepin-2-amine]	< 50	< 50	< 50	< 50	–	< 50	< 50	50 to 79
CC(=O)N1CCN(c2ncc3c(n2)-c2cccnc2Nc2ccccc2-3)CC1 [Example 68, 2-(4-acetylpiperazin-1-yl)-9H-pyrido[2 ,3-b]pyrimido[4,5-d][1]benzazepine]	80 to 100	80 to 100	80 to 100	50 to 79	80 to 100	80 to 100	–	–
Fc1ccc(CNc2ncc3c(n2)-c2ccccc2Nc2cnccc2-3)c(F)c1 [Example 69, N-(2,4-difluorobenzyl)-9H-pyrido[3,4-b]pyrimido[5,4-d][1]benzazepin-2-amine]	80 to 100	80 to 100	80 to 100	80 to 100	80 to 100	80 to 100	–	–
Clc1cccc(CNc2ncc3c(n2)-c2ccccc2Nc2cnccc2-3)c1 [Example 70, N-(3-chlorobenzyl)-9H-pyrido[3,4-b]pyrimido[5,4-d][1]benzazepin-2-amine]	80 to 100	80 to 100	80 to 100	80 to 100	80 to 100	80 to 100	–	–
